Measured values published in publication PMC11085086, “Microwave-Assisted Atom Transfer Radical Cyclization in the Synthesis of 3,3-Dichloro-γ- and δ-Lactams from N-Alkenyl-Tethered Trichloroacetamides Catalyzed by RuCl2(PPh3)3 and Their Cytotoxic Evaluation” (Molecules, 2024).
Converted amounts (≈) assume the structure as drawn.

Legend:
[1] = Hemolysis assay with human erythrocyte suspension; type: cell-based; settings: human, washed human erythrocyte suspension, PBS pH 7.4, read-out: degree of hemolysis
Procedure: Human blood samples were obtained from the Banc de Sang i Teixits de Barcelona (Spain) from the Catalan Department of Health. Blood was deposited in tubes with the anticoagulant EDTA-K3. Blood samples were centrifuged at 3000 rpm and 4 °C for 10 min (Megafuge 2.0 R. Heraeus Instruments, Hanau, Germany) to induce sedimentation. Plasma was extracted with a Pasteur pipette. Next, the residual pellet was washed with PBS at pH 7.4. This procedure was repeated three times to remove residual leukocytes and platelets and to concentrate the erythrocytes. Following the last wash, the erythrocyte suspension was diluted (1:1) in PBS at pH 7.4 to obtain a suitable erythrocyte suspension (cell density of 8 × 10^9 cell/mL).
The hemolysis assay determined the capability of different compounds to induce the hemolysis of the erythrocyte membrane. Stock solutions of each compound at 1 mg/mL in PBS at pH 7.4 were prepared. Different volumes (10–80 μL) were placed in polystyrene tubes, and an aliquot of 25 µL of the erythrocyte suspensions was added to each tube. The final volume was 1 mL. The tubes were incubated at room temperature under rotatory conditions. Then, the tubes were centrifuged at 10,000 rpm for 5 min. The supernatants’ absorbance at 540 nm (Shimadzu UV-160A, Shimadzu, Duisburg, Germany) was compared with that of the positive (erythrocytes hemolyzed with distilled water) and negative (erythrocyte suspension in PBS at pH 7.4.) controls.
The degree of hemolysis was determined using the following equation:Hemolysis (%) = 100 × (Abs − Abs0)/(Abs100 − Abs0) where Abs, Abs0 and Abs100 are the absorbance of the test samples, of the suspension treated with isotonic phosphate–buffered saline (PBS) and of the suspension of complete hemolysis treated with distilled water, respectively.

[2] = system: murine Swiss albino fibroblasts (3T3); assay: Cell viability assay, MTT endpoint, 3T3; type: cell-based; settings: Mus musculus, Fibroblast, 3T3, 24 h incubation, 10–250 µg/mL
Procedure: (§1) The murine Swiss albino fibroblasts (3T3), the human breast adenocarcinoma (MCF-7), the human epithelial carcinoma (HeLa) and the squamous cell carcinoma (A431) cell lines were obtained from Celltec UB. Cells were grown in DMEM medium (4.5 g/L glucose) supplemented with 10% (v/v) FBS, 2 mM L-glutamine, 100 U/mL penicillin and 100 µg/mL streptomycin at 37 °C, 5% CO2. Cells were routinely cultured in 75 cm^2 culture flasks and were trypsinized using trypsin–EDTA when the cells reached approximately 80% confluence. The trypan blue assay, which allows for a direct identification and enumeration of the live (unstained) and dead (blue) cells in the cell population, was used to evaluate the viability of the cells in the cell suspension obtained.
(§2) 3T3 (1 × 10^5 cells/mL), A431, HeLa and MCF-7 cells (5 × 10^4 cells/mL) were grown at defined densities in the 60 central wells of a 96-well plate. Cells were incubated for 24 h in 5% CO2 at 37 °C. Then, the spent medium was removed, and cells were incubated for 24 h with their corresponding compound solutions (1 mg/mL) previously diluted in a minimum amount of DMF (dimethylformamide) and then in DMEM medium supplemented with 5% FBS (100 µL) at the required concentration range (10–250 µg/mL). The viability of the cells upon incubation with the lactam derivatives was assayed using 2 different endpoints: NRU and MTT.
(§3) Only living cells can reduce the yellow tetrazolium salt 3-(4,5-dimethyl-2-thiazolyl)-2,5-diphenyltetrazolium bromide (MTT) to insoluble purple formazan crystals. After a 24 h incubation of the cells with their corresponding NPs, the medium was removed and 100 µL of MTT (Sigma-Aldrich, St. Louis, USA) in PBS (5 mg/mL) diluted 1:10 in culture medium without phenol red and without FBS (Lonza, Verviers, Belgium) was added to the cells. After 3 h of incubation, the medium was removed. Thereafter, 100 µL of DMSO (Sigma-Aldrich, St. Louis, MO, USA) was added to each well to dissolve the purple formazan crystals. Agitation and determination of the absorbance of the extracted solution were performed under the same conditions as described in NRU Assay section. Finally, the effect of each treatment was calculated as the percentage of tetrazolium salt’s reduction by viable cells relative to control cells (cells without any treatment).
(§4) The corresponding half-maximal inhibitory concentration (IC50) values for the different formulations as a function of the cell line and endpoint were determined from the fitting of concentration-dependent viability curves. The corresponding selectivity indexes toward tumoral cells were calculated using the following ratio: SI = IC50 (non-tumoral cell line)/IC50 (tumoral cell line) where 3T3 fibroblasts were used as close representative cells under non-tumoral conditions. Moreover, pseudo selectivity indexes toward tumoral cells were calculated considering the discrete cellular responses at the maximum tested concentration (250 µg/mL).

[3] = Cell viability assay, MTT endpoint, A431; type: cell-based; settings: human, A431 squamous cell carcinoma cells, A431, highest assayed concentration 250 µg/mL, 24 h
Procedure: as §1, §2, §3, §4

[4] = system: squamous cell carcinoma (A431) cell line; assay: Cell viability assay, MTT endpoint, A431; type: cell-based; settings: for SI250 (selective toxicity at 250 µg/mL): A431 compared to 3T3, 250 µg/mL, 24 h
Procedure: as §1, §2, §3, §4

[5] = system: human epithelial carcinoma (HeLa) cell line; assay: Cell viability assay, MTT endpoint, HeLa; type: cell-based; settings: for IC50: Homo sapiens, 24 h
Procedure: as §1, §2, §3, §4

[6] = system: human breast adenocarcinoma (MCF-7) cell line; assay: Cell viability assay, MTT endpoint, MCF-7; type: cell-based; settings: MTT; for IC50: Homo sapiens, MCF7, 24 h incubation, 10–250 µg/mL
Procedure: as §1, §2, §3, §4

[7] = system: murine Swiss albino fibroblasts (3T3); assay: Cell viability assay, NRU endpoint, 3T3; type: cell-based; settings: Mus musculus, Fibroblast, 3T3, 24 h incubation, 10–250 µg/mL
Procedure: as §1, §2
(§5) The neutral red uptake (NRU) assay is based on the accumulation of dye in the lysosomes of viable cells. After the cells were incubated for 24 h with the corresponding systems, the medium was removed, and the solutions were incubated with the NR dye (Sigma-Aldrich, St. Louis, MO, USA) solution (50 µg/mL) dissolved in the medium, without FBS and without phenol red (Lonza, Verviers, Belgium), for 3 h. Cells were then washed with sterile PBS, followed by the addition of 100 µL of a solution containing 50% absolute ethanol and 1% acetic acid in distilled water to extract the dye. To promote the total dissolution of the dye, plates were placed in a microtiter-plate shaker for 5 min at room temperature. The absorbance of the resulting solutions was measured at 550 nm (Bio-Rad 550 microplate reader, Bio-Rad California, Hercules, CA, USA). Finally, the effect of each treatment was calculated as the percentage of dye uptake by viable cells relative to the control cells (cells without any treatment).
as §4

[8] = system: squamous cell carcinoma (A431) cell line; assay: Cell viability assay, NRU endpoint, A431; type: cell-based
Procedure: as §1, §2, §5, §4

[9] = system: human epithelial carcinoma (HeLa) cell line; assay: Cell viability assay, NRU endpoint, HeLa; type: cell-based; settings: 24 h incubation, 10–250 µg/mL
Procedure: as §1, §2, §5, §4

[10] = system: human breast adenocarcinoma (MCF-7) cell line; assay: Cell viability assay, NRU endpoint, MCF-7; type: cell-based; settings: for IC50: Homo sapiens, MCF7, 24 h incubation, 10–250 µg/mL
Procedure: as §1, §2, §5, §4

[11] = Cell viability assay, NRU endpoint, cell line not specified; type: cell-based; settings: up to 250 µg/mL, read-out: minimum cell viability values
Procedure: as §1, §2, §5

[12] = Cell viability assay, MTT endpoint, 3T3; type: cell-based, murine; settings: mouse, 3T3 fibroblasts, 3T3, 250 µg/mL, 24 h
Procedure: as §1, §2, §3, §4

[13] = Cell viability assay, MTT endpoint, HeLa; type: cell-based, human; settings: human, HeLa cells, HeLa, 250 µg/mL, 24 h
Procedure: as §1, §2, §3, §4

[14] = system: 3T3, A431, HeLa and MCF-7 cell lines; assay: Cell viability assays (MTT and NRU), endpoint and cell line not specified; type: cell-based; settings: range over cell lines; read-out: lowest IC50 values as a function of cell line
Procedure: as §1, with “The trypan blue assay, which allows for a direct identification and enumeration of the live (unstained) and dead (blue) cells in the cell population, was used to evaluate the viability of the cells in the cell suspension obtained.” left out
The neutral red uptake (NRU) assay is based on the accumulation of dye in the lysosomes of viable cells. […] The absorbance of the resulting solutions was measured at 550 nm (Bio-Rad 550 microplate reader, Bio-Rad California, Hercules, CA, USA). Finally, the effect of each treatment was calculated as the percentage of dye uptake by viable cells relative to the control cells (cells without any treatment).
Only living cells can reduce the yellow tetrazolium salt 3-(4,5-dimethyl-2-thiazolyl)-2,5-diphenyltetrazolium bromide (MTT) to insoluble purple formazan crystals. […] Agitation and determination of the absorbance of the extracted solution were performed under the same conditions as described in NRU Assay section. Finally, the effect of each treatment was calculated as the percentage of tetrazolium salt’s reduction by viable cells relative to control cells (cells without any treatment). […]

[15] = HeLa, 24 h incubation, 10–250 µg/mL
[16] = Homo sapiens, A-431, 24 h, A431, 24 h incubation, 10–250 µg/mL

Row | SMILES | hemolysis at 10 µg/mL [1] | hemolysis at 80 µg/mL [1] | IC50 [2] | viability at 24 h, 250 µg/mL [3] | SI250 (selective toxicity at 250 µg/mL) [4] | IC50 [5, 15] | IC50 [6] | IC50 [7] | IC50 [9] | IC50 [10] | viability at 24 h [11] | also measured
1 | O=C1N(c2ccccc2)CC(CCl)C1(Cl)Cl (centres unmarked) [2d, 3,3-Dichloro-4-(chloromethyl)-1-phenylpyrrolidin-2-one] | 0.005% | 0.1% | > 250 µg/mL | 50% | 1.4 | > 250 µg/mL | > 250 µg/mL | > 250 µg/mL | > 250 µg/mL | > 250 µg/mL | 80 to 85% | IC50 [8, 16]: > 250 µg/mL; SI250 (selective toxicity at 250 µg/mL) ([10]; MCF-7 compared to 3T3, 250 µg/mL, 24 h): one
2 | C[C@@H](Cl)[C@H]1CN(C(C)(C)C)C(=O)C1(Cl)Cl (racemic) [epi-2g, (RS)-1-(tert-Butyl)-3,3-dichloro-4-((RS)-1-chloroethyl)pyrrolidin-2-one] | – | – | – | – | – | – | – | – | – | – | – | melting point: 113 to 114 °C
3 | CC(C)(C)N1CC(CCl)C(Cl)(Cl)C1=O (centres unmarked) [2a, 1-(tert-Butyl)-3,3-dichloro-4-(chloromethyl)pyrrolidin-2-one] | 0.02% | ~0.07% | 172 µg/mL (≈ 665 µM) | 5% | 3.3 | 195 µg/mL (≈ 754 µM) | > 250 µg/mL | > 250 µg/mL | > 250 µg/mL | > 250 µg/mL | 30% | viability at 24 h, 250 µg/mL [12]: 15%; MTT IC50 A431 ([4]; A431, 24 h incubation, 10–250 µg/mL): 126 µg/mL; IC50 [4, 16]: 192 µg/mL (≈ 743 µM); MTT SI A431 ([4]; SI = IC50 (3T3)/IC50 (A431)): 1.4; viability at 24 h, 250 µg/mL [13]: 15%; MTT IC50 Hela [5, 15]: 109 µg/mL; MTT SI HeLa ([5]; SI = IC50 (3T3)/IC50 (HeLa)): < 1; MTT SI MCF7 ([6]; SI = IC50 (3T3)/IC50 (MCF7)): <0.69; SI250 (selective toxicity at 250 µg/mL) ([8]; A431 compared to 3T3, 250 µg/mL, 24 h): 2.2; IC50 [14]: 100 to 250 µg/mL (≈ 387 to 967 µM)
